Values quoted from earlier work as cited in patent US7585955B2, “Protein separation from a protein mixture” (Florida State University Research Foundation, Inc, priority 2005, dated 2009).

Settings: for pKa1 / pKa2: polyprotic buffer component

Row | Compound | pKa1 | pKa2 | pKa
1 | CC(N)CN (centres unmarked) [1,2-propanediamine] | about 9.80 | about 6.60 | 
2 | Cc1ccc2ccccc2n1 [2-methylquinoline] |  |  | about 5.80
3 | O=C(O)CCCl [3-chloropropanoic acid] |  |  | about 3.98
4 | Nc1ccc(N=Nc2ccccc2)cc1 [4-aminoazobenzene] |  |  | about 2.82
5 | Cc1ccnc2ccccc12 [4-methylquinoline] |  |  | about 5.70
6 | Cc1cccc2ncccc12 [5-methylquinoline] |  |  | about 5.20
7 | Clc1cnc2ncncc2n1 [6-chloropteridine] |  |  | about 3.70
8 | Oc1ccc2ccncc2c1 [7-isoquinolinol] | about 8.90 | about 5.70 | 
9 | CN(C)CC(=O)O [N,N-dimethylglycine] |  |  | about 9.90
10 | CC(=O)NCC(=O)O [N-acetylglycine] |  |  | about 3.70
11 | CCNc1ccccc1 [N-ethylaniline] |  |  | about 5.10
12 | CC(=O)CC(=O)O [acetoacetic acid] |  |  | about 3.60
13 | c1ccc2nc3ccccc3cc2c1 [acridine] |  |  | about 5.60
14 | O=C(O)c1cncc(C(=O)O)c1 [dinicotinic acid] |  |  | about 2.80
15 | N=C(N)NCC(=O)O [glycocyamine] |  |  | about 2.80
16 | O=C(O)CCCCCC(=O)O [heptanedioic acid] | about 5.60 | about 4.70 | 
17 | NCCc1c[nH]cn1 [histamine] | about 9.80 | about 6.00 | 
18 | c1ccc2cnccc2c1 [isoquinoline] |  |  | about 5.40
19 | CC(O)C(=O)O (centres unmarked) [lactic acid] |  |  | about 3.80
20 | NC[C@H](O)c1ccc(O)c(O)c1 [noradrenaline] | about 9.70 | about 8.60 | 
21 | Nc1nccs1 [thiazolamine] |  |  | about 5.30
22 | CN(C)C [trimethylamine] |  |  | about 9.80
23 | O=c1[nH]c(=O)c2[nH]c(=O)[nH]c2[nH]1 [uric acid] |  |  | about 3.90
24 | chloroaniline |  |  | about 2.80
